Patent US7470550B2, “Method of evaluating cell activity” (Toyo Advanced Technologies Co., Ltd., priority 2001, dated 2008)

What was measured:
Format in all cases: cell-based
Mast cells = test: SPR measurement of reaction of mast cells on an antigen
Description: (§1) The method of the invention will be explained in more detail by the following examples, which are not intended to limit the scope of the invention. In the following examples, SPR-CELLIA (Japan Laser Electronic Co.) was used as an SPR analyzer. The sensor chip for amine coupling was prepared as follows.
(§2) In 10 μM solution of 4,4-dithiodibutyric acid in ethanol was immersed a sensor chip and stirred for 30 minutes. Thereafter, the chip was washed with dry ethanol and dried. Water-soluble carbodiimide (25 mg) was dissolved in 1 ml of MilliQ water, and 15mg of N-hydroxysuccinimide in 9 ml of 1,4-dioxane, respectively. Both solutions were mixed immediately before the dried sensor chip was immersed therein and the mixture stirred for 10 minutes. Then, there was added 10 ml of MilliQ water, and the mixture was stirred for 5 minutes. The chip was washed with MilliQ water and preserved in MilliQ water.
Mast cells (2×10^5 cells/ml, 70 μl) were immobilized on a sensor chip in the same manner as in Example 1. IgE was added to a measuring portion, and incubated in a CO2 incubator at 37° C. overnight. The chip was set on an SPR analyzer, and a running buffer (PIPES buffer, pH 7.2) was perfused at a flow rate of 15 μl/min at a fixed temperature of 37° C. Then, 60 μl of 100 ng/ml DNP-HSA (dinitrophenyl-human serum albumin) or 10 μg/ml DNP-lysine was injected, while a running buffer was perfused continuously, and the change of signal was measured. The composition of PIPES (piperaine-N,N′-bis[2-ethane-sulfonic acid]; 1,4-piperzine-diethanesulfonic acid) buffer is as shown in Table 1.

Papilla cells = test: SPR measurement of reaction of papilla cells (mesenchyme cells) with bFGF, with or without phosphorylation inhibitor; conditions: for SPR signal from 10 minutes after the injection: 37° C., 1 μg/ml bFGF alone, or bFGF + 50 μM SU4984
Description: as §1, §2
Papilla cells were removed from a petri dish with 0.02% EDTA and suspended in a DMEM10 culture medium. The cells (2×10^5 cells/ml, 400 μl) were immobilized on a sensor chip in the same manner as in Example 1.
PBS was perfused at a flow rate of 15 μl/min at a fixed temperature of 37° C.; 1 μg/ml of bFGF alone was injected into a control portion, and 60 μl of μg/ml bFGF+50 μM phosphorylation inhibitor (SU4984) into a measuring portion; after a lapse of 42 seconds the circuit was closed and the change of signals was measured.

CTLL-2 cells = test: SPR measurement of reaction of CTLL2 cells (suspended cells) with IL-2; conditions: living CTLL-2 cells immobilized on sensor chip, 37° C., PBS perfusion 15 μl/min; IL-2 62.5 ng/ml, 60 μl
Source text: In the method of the invention, cells are immobilized on a analyzer in the same manner as in the usual SPR measurement for vial cells, to which a stimulus as mentioned above is given to determine the signal as a change of permittivity in a conventional procedure.
as §1, §2
The suspension (30 μl)of CTLL-2 cells (2×10^5 cells/ml) in PBS were directly placed onto both of sensor chip-measuring portion and control portion, and the chip was blocked with 50 μl of 1% BSA. The sensor chip was equipped in a flow-cell unit of the SPR analyzer, of which the temperature was set at 37° C. and was perfused with PBS at a flow rate of 15 μl/min.

[1] = 10 μg/ml DNP-lysine, PIPES buffer pH 7.2, 37° C.
[2] = 60 μl of 100 ng/ml DNP-HSA, PIPES buffer pH 7.2, 37° C.

## N[C@@H](CCCCNc1ccc([N+](=O)[O-])cc1[N+](=O)[O-])C(=O)O [DNP-lysine]
Mast cells; [1]
  primary SPR signal in mast cells: primary signal generated by the binding of DNP-lysine was observed
  secondary SPR signal in mast cells: no secondary signal observed

## O=CN1CCN(c2ccc(/C=C3\C(=O)Nc4ccccc43)cc2)CC1 [SU4984]
Papilla cells
  SPR signal from 10 minutes after the injection: became plateau
Papilla cells; bFGF + 50 μM SU4984
  signal transduction caused by the binding of bFGF: suppressed

## aFGF: agent which does not bind to CTLL-2 cells
CTLL-2 cells
  SPR signal (difference between measuring portion and control portion): no signal was observed

## bFGF: growth factor injected onto papilla cells; does not bind to CTLL-2 cells
CTLL-2 cells
  SPR signal (difference between measuring portion and control portion): no signal was observed
Papilla cells
  SPR signal from 10 minutes after the injection: ascended continuously

## dinitrophenyl-human serum albumin [DNP-HSA]
Mast cells; 100 ng/ml DNP-HSA, IgE sensitized versus unsensitized cells
  primary SPR signal in mast cells (FIG. 3): no primary signal was recorded
Mast cells; [2]
  SPR signal in IgE sensitized mast cells: a strong signal was observed
  SPR signal in IgE unsensitized mast cells: no characteristic change

B1: pleiotrophin: agent which does not bind to CTLL-2 cells (protein, UniProt P21246 33-168, looked up)
Pleiotrophin: GKKEKPEKKVKKSDCGEWQWSVCVPTSGDCGLGTREGTRTGAECKQTMKTQRCKIPCNWKKQFGAECKYQFQAWGECDLNTALKTRTGSLKRALHNAECQKTVTISKPCGKLTKPKPQAESKKKKKEGKKQEKMLD
CTLL-2 cells
  SPR signal (difference between measuring portion and control portion): no signal was observed
